These compounds were tested against T1, CAS3 (Sordaria macrospora, UniProt F7VU04) (assay: stopped-flow CO2 hydration inhibition assay). Conditions: not given.
T1 construct: gene SMAC_03179; primers imply N-terminus (M)MPVTNEE and C-terminus KTVRVV-LE-His6
Assay type: biochemical

Compound | Ki [nM]
Cc1ccc(-c2cc(C(F)(F)F)nn2-c2ccc(S(N)(=O)=O)cc2)cc1 [CLX] | 669 ± 29
NS(=O)(=O)c1cc2c(cc1Cl)NCNS2(=O)=O [HCT] | 545 ± 41
O=C1NS(=O)(=O)c2ccccc21 [SAC] | 191 ± 12

Same assay, conditions: read-out: KI* (nM) / CAS3 ^c / β

Compound | Ki [nM]
CCN[C@H]1CN(CCCOC)S(=O)(=O)c2sc(S(N)(=O)=O)cc21 [BRZ, brinzolamide] | 61 ± 1.4
NS(=O)(=O)c1nnc(NS(=O)(=O)c2ccccc2)s1 [BZA, benzolamide] | 54 ± 0.9
NS(=O)(=O)c1cc(Cl)c(Cl)c(S(N)(=O)=O)c1 [DCP, dichlorophnamide] | 73 ± 3
NS(=O)(=O)c1ccc(S(=O)(=O)Nc2cccc3c(Cl)c[nH]c23)cc1 [IND] | 94 ± 4.6
CC(=O)N=c1sc(S(N)(=O)=O)nn1C [MZA, methazolamide] | 91 ± 6.2
CCN1CCCC1CNC(=O)c1cc(S(N)(=O)=O)ccc1OC (centres unmarked) [SLP] | 493 ± 27
NS(=O)(=O)c1ccc(N2CCCCS2(=O)=O)cc1 [SLT, sulthiame] | 4840 ± 257
CC1(C)O[C@@H]2[C@@H](CO[C@@]3(COS(N)(=O)=O)OC(C)(C)O[C@@H]23)O1 [TPM] | 363 ± 23
Cc1onc(-c2ccccc2)c1-c1ccc(S(N)(=O)=O)cc1 [VLX] | 831 ± 38
NS(=O)(=O)Cc1noc2ccccc12 [ZNS] | 710 ± 40

Next, values leading:

Ki [nM] | Compound
88 ± 2.9 | Nc1nnc(S(N)(=O)=O)s1 [compound 13, deacetylated precursor of acetazolamide]
94 ± 4.1 | Cn1nc(S(N)(=O)=O)sc1=N [compound 14, deacetylated precursor of methazolamide]
82 ± 3.7 | NS(=O)(=O)c1ccc(CO)cc1 [compound 16, 4-hydroxymethyl-benzenesulfonamide]

What follows are compounds tested against T2, CAS3 (Sordaria macrospora, UniProt F7VU04) (assay: biochemical). Conditions: read-out: KI* (nM) / CAS3 ^c / β.
T2 construct: gene SMAC_03179; primers imply N-terminus (M)MPVTNEE and C-terminus KTVRVV-LE-His6
T2 sequence (F7VU04 1-174): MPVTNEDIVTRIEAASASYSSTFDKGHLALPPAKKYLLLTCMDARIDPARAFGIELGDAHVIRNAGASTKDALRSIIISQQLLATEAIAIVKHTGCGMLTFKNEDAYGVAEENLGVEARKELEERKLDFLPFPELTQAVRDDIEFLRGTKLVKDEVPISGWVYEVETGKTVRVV
Method: An Applied Photophysics stopped-flow instrument was used for assaying the CA catalyzed CO2 hydration activity. […] The initial rates of the CA-catalyzed CO2 hydration were followed for a period of 10–100 s for each assay. […] For each measurement, six traces of the initial 5%–10% of the reaction were used for determining the initial velocity. Then, 10-fold decreasing dilution of inhibitor solutions, ranging from 1 nM and 100 µM were employed for determining the inhibition constants. Uncatalyzed rates were determined in the same manner and subtracted from total observed rates. Stock solutions of inhibitor (0.1 mM) were prepared in distilled deionized water, and dilutions up to 1 nM were done thereafter with the assay buffer. Inhibitor and enzyme solutions were preincubated together for 15 min at room temperature before to assay for allowing for the formation of E–I complexes. The inhibition constants were obtained by non-linear least-squares methods using the Cheng–Prusoff equation, and they represent the mean from at least three different determinations. The human isoforms hCA I, II were assayed in the same conditions as above except that the working pH was 7.4 HEPES buffer with phenol red as an indicator [21, 22].

Compound | Ki [nM]
NS(=O)(=O)c1cccc(S(N)(=O)=O)c1 [compound 3] | 83 ± 6
Cc1ccc(S(N)(=O)=O)cc1 [compound 4] | 560 ± 21
NCc1ccc(S(N)(=O)=O)cc1 [compound 5] | 726 ± 30
NCCc1ccc(S(N)(=O)=O)cc1 [compound 6] | 441 ± 14
Nc1ccc(S(N)(=O)=O)cc1F [compound 7] | 585 ± 23
Nc1ccc(S(N)(=O)=O)cc1Cl [compound 8] | 2080 ± 61
Nc1ccc(S(N)(=O)=O)cc1Br [compound 9] | 712 ± 28
NS(=O)(=O)c1cc(Cl)cc(Cl)c1O [compound 10] | 350 ± 13
Nc1cc(C(F)(F)F)c(S(N)(=O)=O)cc1S(N)(=O)=O [compound 11] | 235 ± 16

The remaining lines, values ahead:

Ki [nM] | Compound
90 ± 5.7 | Nc1cc(Cl)c(S(N)(=O)=O)cc1S(N)(=O)=O [compound 12]
605 ± 23 | NS(=O)(=O)c1ccc(O)cc1 [compound 15]
507 ± 26 | NS(=O)(=O)c1ccc(CCO)cc1 [compound 17]
226 ± 13 | NS(=O)(=O)c1ccc(C(=O)O)cc1 [compound 18]
91 ± 4.4 | Nc1nccc(Nc2ccc(S(N)(=O)=O)cc2)n1 [compound 19]
85 ± 2.7 | Nc1ccc(S(=O)(=O)Nc2nnc(S(N)(=O)=O)s2)cc1 [compound 20]
95 ± 3.9 | NS(=O)(=O)c1ccc(CCNS(=O)(=O)c2ccc([N+](=O)[O-])cc2CO)cc1 [compound 21]
85 ± 2.6 | Nc1ccc(S(=O)(=O)Nc2ccc(S(N)(=O)=O)cc2)cc1 [compound 22]
89 ± 3.4 | Nc1ccc(S(=O)(=O)NCc2ccc(S(N)(=O)=O)cc2)cc1 [compound 23]
84 ± 1.5 | Nc1ccc(S(=O)(=O)NCCc2ccc(S(N)(=O)=O)cc2)cc1 [compound 24]
